Where a name gives a salt, the structure may show the parent alone. Read-outs that look alike come from different tables or passages of the source.
Experiments:
[1] = Stability of hydrogen maleate salt versus free base; assay type: physicochemical
[2] = assay type: in vivo, rats; details: for ED50: i.v.
Experimental: These experiments were carried out on rats (with a body weight of 180-200 g) anaesthetized by urethane (1.25 g/kg i.p.) in such a way that 50 μg/kg of aconitine [chemically acetyl benzoyl aconine] was injected to the tail vein then, the arrhythmic disturbances were observed on ERG II lead after 5 minutes [J. Med. Exp. 10, 93 (1964)].
The compounds to be tested for antiarrhythmic effect were intravenously (i.v.) administered 2 minutes, or orally one hour before aconitine.
The aconitine arrhythmia was evaluated in such a manner that the severity of arrhythmia was characterized by an increasing number and, after average calculation both in the control as well as in the tested group, the average of treated group was expressed as percentage of the control. The arrhythmia was characterized by the following scores: […]

[3] = Electroshock (ECS) induced retrograde amnesia, passive avoidance test; assay type: in vivo, NMRI mice; details: for Prevention %: 2 hours after learning
Description: (§1) The biological activity of the compounds of formulas (I) and (Ia) was studied by using passive avoidance test. This test is one of the most widely used animal experimental model for investigating the effects of substances on the cognitive functions (learning and memory processes). This is based on inhibition of the genetically determined behavior of rodents (mice and rats) that they prefer dark space to light one. A single electric shock given in the dark box is employed as a memory trace, the retention and retrieval of which can be controlled after a shorter or longer period.
In this test, the retrograde amnesia was induced on NMRI mice having a body weight of 24-26 g by using an auricular electroshock treatment of 20 mA for 0.2 s at one hour following the learning. The compounds to be tested were administered 2 hours after learning. The protective effect was calculated as percentage value (p%D) by using the following formula: [formula]
P%=Ttreated+ECS -Tplacebo+ECS /Tplacebo -Tplacebo+ECS
(§2) In the above formula, T means the measured retention time of animals treated as shown in the index or the measured retention time of untreated animals, respectively.

[4] = Diazepam (DIA) induced anterograde amnesia, passive avoidance test; assay type: in vivo, NMRI mice; details: for inhibition in vivo at 0.1 mg/kg / inhibition in vivo at 10 mg/kg: Mus musculus, po, 1 h, read-out: Prevention %; for significantly antagonized the amnesic effect of diazepam (percentage): Table 1, p.o.; for antiamnesic effect (overall): overall conclusion from the amnesia tests; for protection against the amnesic effect of diazepam, lower versus higher dose: 0.1 mg/kg and 10 mg/kg p.o.
Description: as §1
The passive avoidance test was carried out on NMRI mice with a body weight of 25-28 g. During the learning, preselected animals (mice entering into a dark space from an illuminated space within 30 s) were placed into an illuminated space. After entering into the dark space, the animal received within 30 s onto his paw an electric shock (1 mA for 3 s) causing an unpleasant sensation. The time of entry into the dark space (latency period) was measured. During the check, after 24 hours, the animals were again put back to the illuminated space and the time elapsed until entry into the dark space (retention time) was measured (limit time=300 s). The animals were intraperitoneally (i.p.) treated with 3 mg/kg of diazepam (chemically, 7-chloro-1,3-dihydro-1-methyl-5-phenyl-2H-1,4-benzodiazepin-2-one) 30 minutes before learning in order to induce anterograde amnesia. The compounds were orally (p.o.) administered in doses of 0.1 or 10 mg/kg, respectively one hour before the learning. The protective effect was calculated percentage value (P%) by using the following formula: [formula]
as §2

[5] = Normobaric hypoxia-induced memory deficiency model on rats; assay type: in vivo; details: 10 mg/kg oral
Experimental: (§3) Compound 4610351 has been investigated in detail both under in vitro and in vivo conditions. This compound evened 36% protection in an oral dose of 10 mg/kg in the normobaric hypoxia-induced memory deficiency model on rats; this surpassed the protective effect of 21% provided by 10 mg/kg oral dose of vinpocetine. […] On the basis of these investigations, compounds of formulas (I) and (Ia) can be utilized for the treatment of diseases and dementias accompanied by the impairment of cognitive processes (learning, memory), such as multiinfarct and Alzeimer type dementias, states following stroke, ischaemic injuries, sequels of trauma of the central nervous system, parkinsonism, Huntington's chorea or multiple sclerosis. The therapeutical doses of compounds of formulas (I) and (Ia) can range between 0.1 and 40 mg/kg of body weight given orally, daily once or several times.

[6] = test system: neuronal calcium uptake (veratrine-induced); assay: Veratrine-induced 45Ca uptake by synaptosome preparation; assay type: biochemical
Experimental: as §3

[7] = test system: neuronal calcium uptake (K^+ -induced); assay: K+ -induced 45Ca uptake by synaptosome preparation; assay type: biochemical
Experimental: as §3

[8] = 10 mg/kg p.o., * marks significance
[9] = 30 mg/kg p.o., one hour before aconitine
[10] = 0.1 mg/kg p.o., one hour before learning, diazepam 3 mg/kg i.p., * = p < 0.05 vs diazepam control
[11] = 10 mg/kg p.o., one hour before learning, diazepam 3 mg/kg i.p., * = p < 0.05 vs diazepam control

| Structure (SMILES) | Inhibition (%) ([2]; 10 mg/kg i.v.) | Inhibition (%) ([2]; 30 mg/kg i.v.) | Inhibition (%) [2, 9] [%] | inhibition in vivo at 0.1 mg/kg [4, 10] [%] | inhibition in vivo at 10 mg/kg [4, 11] [%] | significantly antagonized the amnesic effect of diazepam (percentage) [4] | antiamnesic effect (overall) [4] | further results |
| --- | --- | --- | --- | --- | --- | --- | --- | --- |
| O=C1CC2(CCN(Cc3ccccc3)CC2)Oc2ccccc21 | – | – | – | – | – | – | – | stability over the free base form [1]: higher stability |
| CCCCc1oc2ccccc2c1C(=O)c1cc(I)c(OCCN(CC)CC)c(I)c1 [Amiodarone] | 70 | – | – | – | – | – | – | Inhibition (%) ([2]; 3.0 mg/kg i.v.): 13%; Inhibition (%) ([2]; 5.0 mg/kg i.v.): 29%; ED50 [2]: 7.04 mg/kg |
| CCN1C[C@H]2CN(C)C[C@@H](C1)C2OC(=O)c1ccc(Cl)cc1 (stereo partly drawn) [Bisaramil, 3-methyl-7-ethyl-9α-(4-chlorobenzoyloxy)-3,7-diazabicyclo[3.3.1]nonane hydrochloride] | – | – | – | – | – | – | – | Inhibition (%) ([2]; 0.3 mg/kg i.v.): 20%; Inhibition (%) ([2]; 0.5 mg/kg i.v.): 48%; Inhibition (%) ([2]; 1.0 mg/kg i.v.): 91%; ED50 [2]: 0.49 mg/kg |
| O=C1CC2(CCN(Cc3ccccc3)CC2)Oc2ccccc21 [Compound 4600592, 1'-Benzylspiro[2H-1-benzopyran-2,4'-piperidine]-4(3H)-one] | 3 | 19 | 0 | 144 | 92 | 105-176% | – | Prevention % ([3]; 1 mg/kg p.o.): 48%; Prevention % [3, 8]: 44%; protection in ECS-induced retrograde amnesia ([3]; mouse, in vivo): No considerable protection |
| O=C1CC2(CCN(Cc3ccc(F)cc3)CC2)Oc2ccccc21 [Compound 4610282] | – | – | – | 131 | 24 | 105-176% | significant antiamnesic effect | protection in ECS-induced retrograde amnesia ([3]; 0.1 mg/kg (as printed in text)): 77%; Prevention % ([3]; 1 mg/kg p.o.): 77%; Prevention % [3, 8]: 29% |
| O=C1CC2(CCN(Cc3ccc([N+](=O)[O-])cc3)CC2)Oc2ccccc21 [Compound 4610350] | – | – | – | 170 | 29 | 105-176% | significant antiamnesic effect | Prevention % ([3]; 1 mg/kg p.o.): 0%; Prevention % [3, 8]: 8%; antiamnesic action in lower doses ([4]; 0.1 mg/kg p.o.): showed an antiamnesic action; antiamnesic action in higher doses ([4]; 10 mg/kg p.o.): inactive |
| O=C1CC2(CCN(Cc3ccc(Cl)cc3)CC2)Oc2ccccc21 [Compound 4610351] | 16 | 16 | 5 | 78 | 176 | 105-176% | significant antiamnesic effect | Prevention % ([3]; 1 mg/kg p.o.): 81%; Prevention % [3, 8]: 108%; reversal of ECS-caused amnesia ([3]; both doses): could significantly reverse the ECS-caused amnesia in both doses; reversal of ECS-caused amnesia ([3]; higher dose): 108%; protection, normobaric hypoxia-induced memory deficiency [5]: 36%; IC50 [6]: 4.5 µM; IC50 [7]: 45.6 µM |
| O=C1CC2(CCN(Cc3ccc(Br)cc3)CC2)Oc2ccccc21 [Compound 4611109] | – | – | – | 92 | 0 | – | – | antiamnesic action in lower doses ([4]; 0.1 mg/kg p.o.): showed an antiamnesic action; antiamnesic action in higher doses ([4]; 10 mg/kg p.o.): inactive |
| O=C1CC2(CC[N+](Cc3ccc([N+](=O)[O-])cc3)(Cc3ccc([N+](=O)[O-])cc3)CC2)Oc2ccccc21 [Compound 4611265] | 21 | 10 | 0 | – | – | 105-176% | significant antiamnesic effect | protection against the amnesic effect of diazepam, lower versus higher dose [4]: nearly the same protection; inhibition in vivo at 0.1 mg/kg [4]: 86%; inhibition in vivo at 10 mg/kg [4]: 134% |
| CC(C)(C)c1ccc(CN2CCC3(CC2)CC(=O)c2ccccc2O3)cc1 [Compound 4611266, 1'-(4-tert-butylbenzyl)-spiro[2H-1-benzopyran-2,4'-piperidine]-4(3H)-one] | 21 | 3 | 0 | 159 | 105 | 105-176% | significant antiamnesic effect | protection against the amnesic effect of diazepam, lower versus higher dose [4]: nearly the same protection |
| O=C1CC2(CC[N+](Cc3ccccc3)(Cc3ccccc3)CC2)Oc2ccccc21 [Compound 4611267, 1',1'-dibenzyl-spiro[2H-4(3H)-oxo-1-benzopyran-2,4'-piperidinium]hydrochloride] | 0 | 29 | 0 | 47 | 67 | – | – | – |
| Cc1cccc(C)c1OCC(C)N (stereo not shown) [Mexiletine, 1-methyl-2-(2,6-xylyloxy)ethylamine] | 62 | – | – | – | – | – | – | Inhibition (%) ([2]; 1.0 mg/kg i.v.): 29%; Inhibition (%) ([2]; 3.0 mg/kg i.v.): 68%; ED50 [2]: 2.51 mg/kg |
| C=C[C@H]1C[N@@]2CC[C@H]1C[C@@H]2[C@@H](O)c1ccnc2ccc(OC)cc12 [Quinidine, (S)-(6-methoxy-4-quinolinyl)-[(2R.4S.5R)-5-vinyl-2-quinuclidinyl]methanol] | 55 | 83 | – | – | – | – | – | Inhibition (%) ([2]; 0.3 mg/kg i.v.): 34%; ED50 [2]: 6.66 mg/kg |
| NC(=O)[C@@H]1CCCN1C(=O)[C@H](Cc1c[nH]cn1)NC(=O)[C@@H]1CCC(=O)N1 [TRH, 5-oxo-L-prolyl-L-histidyl-L-proline amide, reference compound] | – | – | – | – | – | – | – | Prevention % ([3]; 1 mg/kg i.p.): 77%; Prevention % ([3]; 10 mg/kg i.p.): 35% |
| CCOC(=O)C1=C[C@]2(CC)CCCN3CCc4c(n1c1ccccc41)[C@@H]32 [Vinpocetine, ethyl apovincaminate, reference compound] | – | – | – | 0 | 123 | – | – | protection, normobaric hypoxia-induced memory deficiency [5]: 21% |
